# Reference: ChEMBL document CHEMBL5506025, “Discovery of LLC0424 as a Potent and Selective in Vivo NSD2 PROTAC Degrader” (J Med Chem, 2024)
# The source made the active and inactive calls. The calls are words filed in the database; no cut-off is given here.
# How the values were obtained:
# [1] = target: T1, Protein cereblon/Histone-lysine N-methyltransferase NSD2 (Homo sapiens) (UniProt O96028+Q96SW2); assay: In vivo PROTAC activity at CRBN/NSD2 in SCID mouse xenografted with human 22Rv1 cells assessed as downregulation of NSD2 level at 60 mg/kg, iv for 5 days by Western blot analysis; format: functional, organism-based; settings: CWR22R, time 5.0 day
# T1 sequence (O96028 whole entry, looked up): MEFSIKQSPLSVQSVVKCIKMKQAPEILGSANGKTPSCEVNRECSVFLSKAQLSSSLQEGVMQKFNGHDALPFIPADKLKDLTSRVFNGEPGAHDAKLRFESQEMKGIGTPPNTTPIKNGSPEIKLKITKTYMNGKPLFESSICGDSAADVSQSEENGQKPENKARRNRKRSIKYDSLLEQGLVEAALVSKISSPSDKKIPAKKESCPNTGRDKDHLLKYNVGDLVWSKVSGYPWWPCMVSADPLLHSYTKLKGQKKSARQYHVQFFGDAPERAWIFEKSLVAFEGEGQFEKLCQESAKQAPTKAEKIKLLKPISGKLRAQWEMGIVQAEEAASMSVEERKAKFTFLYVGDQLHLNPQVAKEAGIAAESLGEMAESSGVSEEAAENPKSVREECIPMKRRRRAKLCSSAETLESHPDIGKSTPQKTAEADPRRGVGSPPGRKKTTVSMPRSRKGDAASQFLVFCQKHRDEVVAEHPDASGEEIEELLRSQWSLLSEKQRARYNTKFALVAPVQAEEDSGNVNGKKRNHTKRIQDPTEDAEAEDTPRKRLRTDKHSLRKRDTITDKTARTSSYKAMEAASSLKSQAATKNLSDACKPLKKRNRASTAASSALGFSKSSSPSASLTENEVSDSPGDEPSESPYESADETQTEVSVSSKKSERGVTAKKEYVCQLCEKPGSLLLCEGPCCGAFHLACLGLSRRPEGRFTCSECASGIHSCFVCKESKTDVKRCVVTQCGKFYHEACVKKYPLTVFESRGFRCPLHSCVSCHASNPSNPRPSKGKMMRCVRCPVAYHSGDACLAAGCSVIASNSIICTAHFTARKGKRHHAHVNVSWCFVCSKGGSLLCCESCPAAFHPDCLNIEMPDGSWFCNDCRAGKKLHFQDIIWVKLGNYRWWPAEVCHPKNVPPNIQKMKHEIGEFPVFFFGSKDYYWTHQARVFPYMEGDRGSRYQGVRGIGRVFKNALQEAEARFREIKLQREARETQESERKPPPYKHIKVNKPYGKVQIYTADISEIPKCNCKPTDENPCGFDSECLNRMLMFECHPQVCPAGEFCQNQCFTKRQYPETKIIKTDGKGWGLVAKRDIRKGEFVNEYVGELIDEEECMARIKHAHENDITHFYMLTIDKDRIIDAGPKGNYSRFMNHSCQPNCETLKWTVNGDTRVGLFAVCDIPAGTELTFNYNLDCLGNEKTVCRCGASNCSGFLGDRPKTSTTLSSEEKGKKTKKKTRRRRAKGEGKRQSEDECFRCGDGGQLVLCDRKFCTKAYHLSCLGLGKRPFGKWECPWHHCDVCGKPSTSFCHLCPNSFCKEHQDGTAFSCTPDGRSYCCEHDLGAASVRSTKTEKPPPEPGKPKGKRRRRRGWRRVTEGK
# T1 sequence (Q96SW2 whole entry, looked up): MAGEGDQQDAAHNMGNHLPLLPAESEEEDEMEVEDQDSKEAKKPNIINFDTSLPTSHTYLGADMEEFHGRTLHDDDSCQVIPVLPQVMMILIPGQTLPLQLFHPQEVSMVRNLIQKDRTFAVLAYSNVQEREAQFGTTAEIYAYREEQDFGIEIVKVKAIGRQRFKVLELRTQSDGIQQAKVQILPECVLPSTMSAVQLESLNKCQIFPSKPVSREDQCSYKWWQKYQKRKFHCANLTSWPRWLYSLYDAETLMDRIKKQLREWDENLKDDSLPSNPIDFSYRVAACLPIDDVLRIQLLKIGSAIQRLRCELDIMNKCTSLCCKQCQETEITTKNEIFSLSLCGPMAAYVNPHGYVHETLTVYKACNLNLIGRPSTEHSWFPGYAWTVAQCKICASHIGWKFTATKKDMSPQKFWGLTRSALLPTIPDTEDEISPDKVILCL
# [2] = target: T1, Protein cereblon/Histone-lysine N-methyltransferase NSD2 (Homo sapiens); assay: In vivo PROTAC activity at CRBN/NSD2 in SCID mouse xenografted with human 22Rv1 cells assessed as downregulation of NSD2 level at 60 mg/kg, iv for 5 days by immunohistochemical analysis; format: functional, organism-based; settings: CWR22R, time 5.0 day
# [3] = target: T1, Protein cereblon/Histone-lysine N-methyltransferase NSD2 (Homo sapiens); assay: PROTAC activity at CRBN/NSD2 in human RPMI 8402 cells assessed as induction of NSD2 degradation incubated for 24 hrs by immunoblot analysis; format: cell-based; settings: dose 0.001-10 µM
# [4] = target: T2, Protein cereblon/Eukaryotic peptide chain release factor GTP-binding subunit ERF3A (Homo sapiens) (UniProt Q96SW2+P15170); assay: PROTAC activity at CRBN/GSPT1 in human RPMI 8402 cells assessed as decrease in GSPT1 level at 2 uM by immunoblot analysis; format: cell-based
# T2 sequence (P15170 whole entry, looked up): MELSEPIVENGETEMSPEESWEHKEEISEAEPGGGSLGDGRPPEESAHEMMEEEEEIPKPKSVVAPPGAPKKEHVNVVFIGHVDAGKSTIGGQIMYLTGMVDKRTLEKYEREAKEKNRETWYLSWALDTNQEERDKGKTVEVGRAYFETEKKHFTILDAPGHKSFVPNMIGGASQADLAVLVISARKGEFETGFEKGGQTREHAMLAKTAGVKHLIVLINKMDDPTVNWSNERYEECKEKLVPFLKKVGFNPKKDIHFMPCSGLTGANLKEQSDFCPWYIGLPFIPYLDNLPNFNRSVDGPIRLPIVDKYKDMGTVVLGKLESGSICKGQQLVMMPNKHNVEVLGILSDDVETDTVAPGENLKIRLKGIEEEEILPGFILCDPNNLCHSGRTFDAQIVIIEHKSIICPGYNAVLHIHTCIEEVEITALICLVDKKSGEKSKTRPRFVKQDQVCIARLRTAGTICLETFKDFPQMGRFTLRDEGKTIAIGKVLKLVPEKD
# T2 sequence (Q96SW2 whole entry, looked up): as the sequence (Q96SW2 whole entry, looked up) above
# [5] = target: Protein cereblon/Histone-lysine N-methyltransferase NSD3 (Homo sapiens) (UniProt Q9BZ95+Q96SW2); assay: PROTAC activity at CRBN/NSD3 in human SEM cells assessed as decrease in NSD3 level at 2 uM measured upto 8 hrs by immunoblot analysis; format: cell-based
# Protein cereblon/Histone-lysine N-methyltransferase NSD3 (Homo sapiens), sequence (Q96SW2 whole entry, looked up): as above
# Protein cereblon/Histone-lysine N-methyltransferase NSD3 (Homo sapiens), sequence (Q9BZ95 whole entry, looked up): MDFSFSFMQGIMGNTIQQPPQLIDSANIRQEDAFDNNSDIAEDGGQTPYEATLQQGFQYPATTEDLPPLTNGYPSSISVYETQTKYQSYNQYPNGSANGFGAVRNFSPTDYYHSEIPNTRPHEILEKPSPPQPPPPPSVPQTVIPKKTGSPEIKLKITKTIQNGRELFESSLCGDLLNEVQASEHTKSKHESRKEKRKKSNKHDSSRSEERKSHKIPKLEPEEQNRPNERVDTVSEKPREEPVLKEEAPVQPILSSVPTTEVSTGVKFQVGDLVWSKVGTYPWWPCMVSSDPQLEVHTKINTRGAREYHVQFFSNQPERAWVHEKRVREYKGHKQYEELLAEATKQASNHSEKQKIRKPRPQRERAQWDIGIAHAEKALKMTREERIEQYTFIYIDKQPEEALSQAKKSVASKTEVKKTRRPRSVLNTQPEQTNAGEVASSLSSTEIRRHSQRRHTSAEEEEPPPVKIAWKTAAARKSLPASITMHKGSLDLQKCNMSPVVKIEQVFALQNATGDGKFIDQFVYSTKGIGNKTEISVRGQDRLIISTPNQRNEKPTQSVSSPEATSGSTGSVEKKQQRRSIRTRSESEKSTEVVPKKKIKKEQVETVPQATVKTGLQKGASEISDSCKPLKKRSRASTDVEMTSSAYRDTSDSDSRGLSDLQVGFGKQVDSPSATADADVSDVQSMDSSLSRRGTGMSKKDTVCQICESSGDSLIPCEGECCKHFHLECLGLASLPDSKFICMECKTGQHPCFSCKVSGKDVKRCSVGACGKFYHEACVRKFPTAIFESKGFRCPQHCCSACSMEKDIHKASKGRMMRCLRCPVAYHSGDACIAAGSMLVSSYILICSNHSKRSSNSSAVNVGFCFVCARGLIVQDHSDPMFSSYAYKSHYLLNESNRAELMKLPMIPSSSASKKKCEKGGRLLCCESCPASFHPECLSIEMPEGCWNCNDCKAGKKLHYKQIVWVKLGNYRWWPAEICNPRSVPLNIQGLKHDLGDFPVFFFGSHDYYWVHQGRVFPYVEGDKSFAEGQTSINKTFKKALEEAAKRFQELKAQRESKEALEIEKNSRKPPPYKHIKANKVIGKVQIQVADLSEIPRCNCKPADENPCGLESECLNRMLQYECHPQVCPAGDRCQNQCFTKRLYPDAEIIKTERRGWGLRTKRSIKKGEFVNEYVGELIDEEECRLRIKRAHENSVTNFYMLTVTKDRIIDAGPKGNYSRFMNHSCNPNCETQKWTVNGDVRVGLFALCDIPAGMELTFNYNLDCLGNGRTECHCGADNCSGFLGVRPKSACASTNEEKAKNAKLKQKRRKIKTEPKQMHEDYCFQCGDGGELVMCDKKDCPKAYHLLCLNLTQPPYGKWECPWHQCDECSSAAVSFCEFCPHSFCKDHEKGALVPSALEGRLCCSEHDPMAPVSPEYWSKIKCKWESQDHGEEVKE
# [6] = target: T1, Protein cereblon/Histone-lysine N-methyltransferase NSD2 (Homo sapiens); assay: PROTAC activity at CRBN/NSD2 in human RPMI 8402 cells assessed as induction of NSD2 degradation at 2 uM pretreated with VL-285 for 2 hrs followed by compound addition and measured after 6 to 12 hrs by Western blot analysis; format: cell-based; settings: time 6-12 hrs
# [7] = target: T1, Protein cereblon/Histone-lysine N-methyltransferase NSD2 (Homo sapiens); assay: PROTAC activity at CRBN/NSD2 in human RPMI 8402 cells assessed as induction of NSD2 degradation at 2 uM pretreated with UNC6934 for 2 hrs followed by compound addition and measured after 6 to 12 hrs by Western blot analysis; format: cell-based; settings: time 6-12 hrs
# [8] = target: T2, Protein cereblon/Eukaryotic peptide chain release factor GTP-binding subunit ERF3A (Homo sapiens); assay: PROTAC activity at CRBN/GSPT1 in human SEM cells assessed as decrease in GSPT1 level at 2 uM measured after 12 hrs by immunoblot analysis; format: cell-based
# [9] = target: T1, Protein cereblon/Histone-lysine N-methyltransferase NSD2 (Homo sapiens); assay: In vivo PROTAC activity at CRBN/NSD2 in SCID mouse xenografted with human 22Rv1 cells assessed as downregulation of NSD2 level at 60 mg/kg, ip for 5 days by immunohistochemical analysis; format: functional, organism-based; settings: CWR22R, time 5.0 day
# [10] = target: T1, Protein cereblon/Histone-lysine N-methyltransferase NSD2 (Homo sapiens); assay: In vivo PROTAC activity at CRBN/NSD2 in SCID mouse xenografted with human SEM cells assessed as downregulation of NSD2 level at 60 mg/kg, iv for 5 days by immunohistochemical analysis; format: functional, organism-based; settings: time 5.0 day
# [11] = target: T1, Protein cereblon/Histone-lysine N-methyltransferase NSD2 (Homo sapiens); assay: PROTAC activity at CRBN/NSD2 in human RPMI 8402 cells assessed as induction of NSD2 degradation at 2 uM measured after 12 to 24 hrs by immunoblot analysis; format: cell-based; settings: time 12-24 hrs
# [12] = target: T1, Protein cereblon/Histone-lysine N-methyltransferase NSD2 (Homo sapiens); assay: PROTAC activity at CRBN/NSD2 in human VCaP cells assessed as decrease in NSD2 level at 2 uM measured after 6 hrs by TMT-labeled quantitative proteomics assay; format: cell-based
# [13] = target: T1, Protein cereblon/Histone-lysine N-methyltransferase NSD2 (Homo sapiens); assay: PROTAC activity at CRBN/NSD2 in human SEM cells assessed as induction of NSD2 degradation at 2 uM measured after 4 to 8 hrs hrs by immunoblot analysis; format: cell-based; settings: time 4-8 hrs
# [14] = tested on: SEM cells; assay: Downregulation of CD38 gene expression in human SEM cells measured after 14 days by RNA sequencing assay; format: functional, cell-based; settings: time 14.0 day
# [15] = target: T1, Protein cereblon/Histone-lysine N-methyltransferase NSD2 (Homo sapiens); assay: PROTAC activity at CRBN/NSD2 in human RPMI 8402 cells assessed as induction of NSD2 degradation at 0.5 to 2 uM measured after 24 hrs by immunoblot analysis; format: cell-based; settings: dose 0.5-2 µM
# [16] = target: Protein cereblon/Histone-lysine N-methyltransferase, H3 lysine-36 specific (Homo sapiens) (UniProt Q96L73+Q96SW2); assay: PROTAC activity at CRBN/NSD1 in human SEM cells assessed as decrease in NSD1 level at 2 uM measured upto 8 hrs by immunoblot analysis; format: cell-based
# [17] = target: T1, Protein cereblon/Histone-lysine N-methyltransferase NSD2 (Homo sapiens); assay: In vivo PROTAC activity at CRBN/NSD2 in SCID mouse xenografted with human SEM cells assessed as downregulation of NSD2 level at 60 mg/kg, iv for 5 days by Western blot analysis; format: functional, organism-based; settings: time 5.0 day
# [18] = tested on: SEM cells; assay: Downregulation of CD9 gene expression in human SEM cells measured after 14 days by RNA sequencing assay; format: functional, cell-based; settings: time 14.0 day
# [19] = target: T1, Protein cereblon/Histone-lysine N-methyltransferase NSD2 (Homo sapiens); assay: PROTAC activity at CRBN/NSD2 in human SEM cells assessed as induction of NSD2 degradation at 2 uM preincubated for 12 hrs followed by compound washout and measured after 48 hrs by immunoblot analysis; format: cell-based
# [20] = target: T1, Protein cereblon/Histone-lysine N-methyltransferase NSD2 (Homo sapiens); assay: PROTAC activity at CRBN/NSD2 in human RPMI 8402 cells assessed as induction of NSD2 degradation at 2 uM measured after 4 to 8 hrs hrs by immunoblot analysis; format: cell-based; settings: time 4-8 hrs
# [21] = target: Protein cereblon/Zinc finger protein Aiolos (Homo sapiens) (UniProt Q96SW2+Q9UKT9); assay: PROTAC activity at CRBN/IKZF3 in human SEM cells assessed as decrease in IKZF3 level at 2 uM measured upto 8 hrs by immunoblot analysis; format: cell-based
# Protein cereblon/Zinc finger protein Aiolos (Homo sapiens), sequence (Q96SW2 whole entry, looked up): as the sequence (Q96SW2 whole entry, looked up) above
# Protein cereblon/Zinc finger protein Aiolos (Homo sapiens), sequence (Q9UKT9 whole entry, looked up): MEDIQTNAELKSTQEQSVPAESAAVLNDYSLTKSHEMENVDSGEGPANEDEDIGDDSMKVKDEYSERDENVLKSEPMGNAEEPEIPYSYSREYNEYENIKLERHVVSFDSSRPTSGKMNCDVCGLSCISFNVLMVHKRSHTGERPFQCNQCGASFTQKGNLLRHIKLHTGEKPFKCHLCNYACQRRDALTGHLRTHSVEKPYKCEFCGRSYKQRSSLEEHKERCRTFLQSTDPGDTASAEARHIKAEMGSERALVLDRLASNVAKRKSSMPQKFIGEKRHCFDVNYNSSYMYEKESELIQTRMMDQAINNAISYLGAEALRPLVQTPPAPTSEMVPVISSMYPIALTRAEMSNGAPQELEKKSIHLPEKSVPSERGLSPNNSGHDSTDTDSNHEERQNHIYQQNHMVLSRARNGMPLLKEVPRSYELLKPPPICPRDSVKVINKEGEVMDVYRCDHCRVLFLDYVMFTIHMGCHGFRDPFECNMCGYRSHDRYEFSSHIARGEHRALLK
# [22] = target: T1, Protein cereblon/Histone-lysine N-methyltransferase NSD2 (Homo sapiens); assay: In vivo PROTAC activity at CRBN/NSD2 in SCID mouse xenografted with human SEM cells assessed as downregulation of NSD2 level at 60 mg/kg, ip for 5 days by Western blot analysis; format: functional, organism-based; settings: time 5.0 day
# [23] = tested on: SEM cells; assay: Cytotoxicity against human SEM cells harbouring NSD2 assessed as inhibition of cell growth at 2 uM measured after 9 days by Celltiter-glo assay; format: functional, cell-based; settings: time 9.0 day
# [24] = tested on: SEM cells; assay: Downregulation of TNFAIP3 gene expression in human SEM cells measured after 14 days by RNA sequencing assay; format: functional, cell-based; settings: time 14.0 day
# [25] = target: T1, Protein cereblon/Histone-lysine N-methyltransferase NSD2 (Homo sapiens); assay: PROTAC activity at CRBN/NSD2 in human SEM cells assessed as downregulation of H3K36Me2 level at 2 uM measured after 8 hrs hrs by immunoblot analysis; format: cell-based
# [26] = target: Cereblon/Casein kinase I alpha (Homo sapiens) (UniProt P48729+Q96SW2); assay: PROTAC activity at CRBN/CK1alpha in human SEM cells assessed as decrease in CK1alpha level at 2 uM measured upto 8 hrs by immunoblot analysis; format: cell-based
# Cereblon/Casein kinase I alpha (Homo sapiens), sequence (P48729 2-337 limits assumed): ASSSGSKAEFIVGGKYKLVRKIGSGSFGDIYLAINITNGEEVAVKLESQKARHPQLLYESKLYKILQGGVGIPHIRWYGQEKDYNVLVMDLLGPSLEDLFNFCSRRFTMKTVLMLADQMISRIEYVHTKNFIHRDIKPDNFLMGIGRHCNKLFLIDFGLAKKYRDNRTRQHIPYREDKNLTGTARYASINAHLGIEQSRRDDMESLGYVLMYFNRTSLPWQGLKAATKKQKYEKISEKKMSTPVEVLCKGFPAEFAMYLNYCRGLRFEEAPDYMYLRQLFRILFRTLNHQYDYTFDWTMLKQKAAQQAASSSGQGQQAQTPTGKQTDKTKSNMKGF
# Cereblon/Casein kinase I alpha (Homo sapiens), sequence (Q96SW2 whole entry partner): as the sequence (Q96SW2 whole entry, looked up) above
# [27] = target: T1, Protein cereblon/Histone-lysine N-methyltransferase NSD2 (Homo sapiens); assay: In vivo PROTAC activity at CRBN/NSD2 in SCID mouse xenografted with human SEM cells assessed as downregulation of NSD2 level at 60 mg/kg, ip for 5 days by immunohistochemical analysis; format: functional, organism-based; settings: time 5.0 day
# [28] = target: Cereblon/Ikaros (Homo sapiens) (UniProt Q96SW2+Q13422); assay: PROTAC activity at CRBN/IKZF1 in human SEM cells assessed as decrease in IKZF1 level at 2 uM measured upto 8 hrs by immunoblot analysis; format: cell-based
# [29] = target: T1, Protein cereblon/Histone-lysine N-methyltransferase NSD2 (Homo sapiens); assay: PROTAC activity at CRBN/NSD2 in human SEM cells assessed as decrease in NSD2 level at 2 uM measured after 4 hrs by TMT-labeled quantitative proteomics assay; format: cell-based
# [30] = target: T1, Protein cereblon/Histone-lysine N-methyltransferase NSD2 (Homo sapiens); assay: PROTAC activity at CRBN/NSD2 in human RPMI 8402 cells assessed as downregulation of H3K36Me2 level at 2 uM measured upto 24 hrs hrs by immunoblot analysis; format: cell-based
compound,measurement,setting,value
O=C1CCC(N2C(=O)c3ccc(N4CCC(NC(=O)c5ccc(NC(=O)c6ccc(CN(C(=O)c7ccc8c(c7)OCC(=O)N8)C7CC7)cc6)cc5)CC4)cc3C2=O)C(=O)N1 (stereo not given),Activity,[1],Active
same,Activity,[2],Active
same,Activity,[3],Dose-Dependent Effect
same,Activity,[4],Active
same,Activity,[5],inactive
same,Activity,[6],Active
same,Activity,[7],inactive
same,Activity,[8],Active
same,Activity,[9],Active
same,Activity,[10],Active
same,Activity,[11],Active
same,Activity,[12],Active
same,Activity,[13],Active
same,Activity,[14],Active
same,Activity,[15],Active
same,Activity,[16],inactive
same,Activity,[17],Active
same,Activity,[18],Active
same,Activity,[19],inactive
same,Activity,[20],Active
same,Activity,[21],inactive
same,Activity,[22],Active
same,Activity,[23],Active
same,Activity,[24],Active
same,Activity,[25],Active
same,Activity,[26],inactive
same,Activity,[27],Active
same,Activity,[28],inactive
same,Activity,[29],Active
same,Activity,[30],Active
